Experimental findings from ChEMBL document CHEMBL1129390, “Synthesis and solution conformation of cyclo[RGDRGD]: a cyclic peptide with selectivity for the alpha V beta 3 receptor” (J Med Chem, 1996) are described below.

SMILES strings stand for the structures. Square brackets hold non-standard residues; d marks the D form. Peptide text beside a SMILES is read from it. NMeR = CN[C@@H](CCCNC(=N)N)C(=O)O; 3Amb = NCc1cccc(C(=O)O)c1; dAbu = CC[C@@H](N)C(=O)O

This experiment addresses Integrin alpha-V/beta-3 (Homo sapiens, UniProt P05106+P06756). The experiment can be described thus: Inhibition of alphaV-beta3 interaction with vitronectin. The experiment is classed as protein-complex assay.

Chain of Integrin alpha-V/beta-3 (P05106 27-788 limits assumed): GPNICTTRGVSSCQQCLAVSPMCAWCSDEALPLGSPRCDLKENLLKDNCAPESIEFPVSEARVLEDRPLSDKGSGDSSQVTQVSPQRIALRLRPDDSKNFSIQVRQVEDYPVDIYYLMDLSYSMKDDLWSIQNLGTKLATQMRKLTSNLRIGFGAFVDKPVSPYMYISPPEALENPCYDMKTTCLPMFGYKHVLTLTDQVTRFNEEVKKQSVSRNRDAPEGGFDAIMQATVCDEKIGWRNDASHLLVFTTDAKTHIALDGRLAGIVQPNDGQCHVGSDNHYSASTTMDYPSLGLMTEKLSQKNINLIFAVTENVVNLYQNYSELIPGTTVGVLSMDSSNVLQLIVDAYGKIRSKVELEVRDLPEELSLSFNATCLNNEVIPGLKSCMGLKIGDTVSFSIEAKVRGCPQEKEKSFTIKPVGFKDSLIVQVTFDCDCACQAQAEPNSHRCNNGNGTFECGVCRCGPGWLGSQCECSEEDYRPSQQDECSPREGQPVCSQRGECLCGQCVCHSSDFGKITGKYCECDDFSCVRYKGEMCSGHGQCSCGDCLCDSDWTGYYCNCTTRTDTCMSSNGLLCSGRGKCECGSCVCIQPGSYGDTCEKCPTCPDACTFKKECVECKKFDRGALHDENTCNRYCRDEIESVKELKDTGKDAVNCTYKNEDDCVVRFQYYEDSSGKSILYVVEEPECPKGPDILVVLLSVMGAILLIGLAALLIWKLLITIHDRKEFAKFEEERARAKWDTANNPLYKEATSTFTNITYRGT
Chain of Integrin alpha-V/beta-3 (P06756 31-889 limits assumed): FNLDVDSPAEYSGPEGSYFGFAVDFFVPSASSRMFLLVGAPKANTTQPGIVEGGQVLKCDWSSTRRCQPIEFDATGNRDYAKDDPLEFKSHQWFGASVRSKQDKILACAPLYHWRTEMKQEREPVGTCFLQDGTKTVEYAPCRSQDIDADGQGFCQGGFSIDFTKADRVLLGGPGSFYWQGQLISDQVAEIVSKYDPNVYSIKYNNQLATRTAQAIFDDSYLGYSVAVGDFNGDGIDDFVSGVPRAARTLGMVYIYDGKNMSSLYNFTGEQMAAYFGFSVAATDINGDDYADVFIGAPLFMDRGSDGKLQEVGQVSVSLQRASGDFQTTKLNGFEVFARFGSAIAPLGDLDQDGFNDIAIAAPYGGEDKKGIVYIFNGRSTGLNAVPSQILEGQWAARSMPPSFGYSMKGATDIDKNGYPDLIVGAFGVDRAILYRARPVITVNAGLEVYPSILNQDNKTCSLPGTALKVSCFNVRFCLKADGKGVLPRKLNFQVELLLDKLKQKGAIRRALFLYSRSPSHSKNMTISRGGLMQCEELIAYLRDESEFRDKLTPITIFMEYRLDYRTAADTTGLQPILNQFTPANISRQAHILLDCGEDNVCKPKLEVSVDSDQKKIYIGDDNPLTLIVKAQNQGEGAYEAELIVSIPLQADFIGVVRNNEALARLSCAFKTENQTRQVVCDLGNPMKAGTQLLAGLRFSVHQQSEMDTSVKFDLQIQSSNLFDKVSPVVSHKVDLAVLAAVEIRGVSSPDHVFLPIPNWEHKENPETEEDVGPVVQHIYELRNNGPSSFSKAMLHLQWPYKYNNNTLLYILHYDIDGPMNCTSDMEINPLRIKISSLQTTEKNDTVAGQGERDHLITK
Chain of Integrin alpha-V/beta-3 (P06756 891-1048 limits assumed): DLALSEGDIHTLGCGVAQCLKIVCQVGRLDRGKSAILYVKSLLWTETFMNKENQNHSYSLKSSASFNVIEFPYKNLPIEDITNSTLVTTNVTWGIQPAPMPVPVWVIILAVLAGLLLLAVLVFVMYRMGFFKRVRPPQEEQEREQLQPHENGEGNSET

On to `N=C(N)NCCC[C@@H]1NC(=O)[C@H](CC(=O)O)NC(=O)CNC(=O)[C@H](CCCNC(=N)N)NC(=O)[C@H](CC(=O)O)NC(=O)CNC1=O`, for which the IC50 came to 140 nM.

The compound `N=C(N)NCCC[C@@H]1NC(=O)[C@H](CC(=O)O)NC(=O)CNC(=O)[C@H](CCCNC(=N)N)NC(=O)[C@@H](CC(=O)O)NC(=O)CNC1=O` gave an IC50 of 320 nM.

Take `NC(N)=NCCC[C@H](NC(=O)[C@H](CC(=O)O)NC(=O)CNC(=O)[C@@H](N)CCCN=C(N)N)C(=O)NCC(=O)N[C@@H](CC(=O)O)C(=O)O` (H-RGDRGD-OH): the IC50 turned out to be 70 nM.

For the compound `CC[C@H]1NC(=O)c2cccc(c2)CNC(=O)[C@H](CC(=O)O)NC(=O)CNC(=O)[C@H](CCCN=C(N)N)N(C)C1=O` (cyclo([NMeR]GD[3Amb][dAbu])), the IC50 was > 10000 nM.
